Among the data in ChEMBL document CHEMBL1201862, “PubChem BioAssay data set” (2004) are IC50, EC50 and AC50 values, retold here.

In general, IC50 refers to the concentration that gives 50% inhibition. The term EC50 denotes the midpoint of the concentration-response curve. Usually AC50 stands for the midpoint of the concentration-response curve, whichever way the signal moves.

Structures are written as SMILES. Calls of active or inactive are those of the source.

Experiment [1] addresses T1, Alkaline phosphatase, tissue-nonspecific isozyme (Homo sapiens, UniProt P05186).
T1 sequence (P05186 whole entry): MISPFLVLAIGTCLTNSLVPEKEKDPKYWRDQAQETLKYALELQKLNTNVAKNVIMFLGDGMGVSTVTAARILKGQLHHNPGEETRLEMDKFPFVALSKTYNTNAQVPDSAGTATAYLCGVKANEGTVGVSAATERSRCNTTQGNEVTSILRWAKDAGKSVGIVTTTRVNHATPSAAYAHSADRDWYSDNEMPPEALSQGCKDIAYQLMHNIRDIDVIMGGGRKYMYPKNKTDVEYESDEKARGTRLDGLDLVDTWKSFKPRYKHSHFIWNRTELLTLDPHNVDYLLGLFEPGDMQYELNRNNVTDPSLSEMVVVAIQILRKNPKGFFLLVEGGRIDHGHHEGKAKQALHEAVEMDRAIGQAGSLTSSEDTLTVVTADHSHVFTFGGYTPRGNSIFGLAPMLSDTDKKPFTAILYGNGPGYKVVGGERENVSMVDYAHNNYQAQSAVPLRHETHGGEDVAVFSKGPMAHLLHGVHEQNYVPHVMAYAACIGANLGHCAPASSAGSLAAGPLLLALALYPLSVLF
Description: human TNAP enzyme inhibitors, SAR follow-up, biochemical, luminescent, dose response (AID 1056).

Experiment [2] has as its target Alkaline phosphatase, placental type (Homo sapiens, UniProt P05187). Description: PLAP enzyme inhibitors, confirmation, biochemical, luminescence (AID 1512). The class given is functional.
Experiment [3] has as its target Glyceraldehyde-3-phosphate dehydrogenase (Homo sapiens, UniProt P04406).
In experiment [4] the target is T2, Short transient receptor potential channel 4 (Mus musculus, UniProt Q9QUQ5).
T2 sequence (Q9QUQ5 whole entry): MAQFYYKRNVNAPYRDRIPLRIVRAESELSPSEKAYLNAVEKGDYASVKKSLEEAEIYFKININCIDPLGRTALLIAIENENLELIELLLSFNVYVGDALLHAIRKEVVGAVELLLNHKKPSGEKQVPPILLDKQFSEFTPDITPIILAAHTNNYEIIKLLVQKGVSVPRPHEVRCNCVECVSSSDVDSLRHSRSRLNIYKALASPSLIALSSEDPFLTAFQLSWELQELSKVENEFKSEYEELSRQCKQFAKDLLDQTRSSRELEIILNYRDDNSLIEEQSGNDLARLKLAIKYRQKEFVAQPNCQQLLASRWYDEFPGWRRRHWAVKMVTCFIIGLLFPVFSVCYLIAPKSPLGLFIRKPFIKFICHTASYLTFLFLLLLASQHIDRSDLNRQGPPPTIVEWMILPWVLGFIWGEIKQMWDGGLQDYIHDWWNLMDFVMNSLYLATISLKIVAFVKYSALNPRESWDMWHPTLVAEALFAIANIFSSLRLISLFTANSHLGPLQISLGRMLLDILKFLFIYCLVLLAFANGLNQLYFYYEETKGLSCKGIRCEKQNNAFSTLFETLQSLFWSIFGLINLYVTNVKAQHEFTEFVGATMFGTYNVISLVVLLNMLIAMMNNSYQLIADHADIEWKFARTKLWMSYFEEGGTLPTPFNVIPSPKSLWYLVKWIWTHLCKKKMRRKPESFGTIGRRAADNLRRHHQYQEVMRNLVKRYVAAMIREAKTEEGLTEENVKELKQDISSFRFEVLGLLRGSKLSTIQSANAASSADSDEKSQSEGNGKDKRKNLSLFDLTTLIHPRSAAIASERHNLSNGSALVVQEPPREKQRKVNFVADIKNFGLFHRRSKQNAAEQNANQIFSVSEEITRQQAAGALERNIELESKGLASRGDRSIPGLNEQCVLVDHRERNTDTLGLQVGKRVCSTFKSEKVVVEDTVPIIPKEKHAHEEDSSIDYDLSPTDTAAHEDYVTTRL
Description: mouse TRPC4 channel inhibitors, dose response, cell-based, HEK293 TRPC4/mu-opioid, Fluo-4 calcium (AID 434942).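 Also: potency of inhibitors blocking the TRPC4 calcium response.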 The class given is functional.

Experiment [5] addresses T2, Short transient receptor potential channel 4. Description: mouse TRPC4 channel activators, dose response, cell-based, HEK293 TRPC4/mu-opioid, Fluo-4 calcium (AID 434937). It counts as functional.
Experiment [6] is described as follows: inhibitors of intracellular T. cruzi replication, confirmation, NIH3T3 host cells, beta-gal luminescence (AID 2044).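 Also: intracellular parasites grown in NIH/3T3 mouse fibroblasts as host cells; luminescent beta-galactosidase reporter signal from transgenic T. cruzi replicating inside host cells; inhibitors lower the luminescence signal.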 The class given is functional, cell-based.
Experiment [7] is described as follows: cytotoxicity toward NIH3T3 fibroblasts, dose response, counter-screen, cell-based, ATP luminescence, mouse fibroblasts (AID 2010).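 Also: cells exposed to compound for about 90 hours before reading.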 It counts as functional.
Experiment [8] addresses T3, Voltage-gated N-type calcium channel alpha-1B subunit/Amyloid beta A4 precursor protein-binding family A member 1 (Homo sapiens, UniProt Q00975+Q02410). It counts as protein assay.
Experiment [9] concerns the target T3, Voltage-gated N-type calcium channel alpha-1B subunit/Amyloid beta A4 precursor protein-binding family A member 1. The class given is protein assay. This is another data set of the same source.
The next experiment deals with T4, Protein RecA (Mycobacterium tuberculosis, UniProt P9WHJ3).
T4 sequence (P9WHJ3 whole entry): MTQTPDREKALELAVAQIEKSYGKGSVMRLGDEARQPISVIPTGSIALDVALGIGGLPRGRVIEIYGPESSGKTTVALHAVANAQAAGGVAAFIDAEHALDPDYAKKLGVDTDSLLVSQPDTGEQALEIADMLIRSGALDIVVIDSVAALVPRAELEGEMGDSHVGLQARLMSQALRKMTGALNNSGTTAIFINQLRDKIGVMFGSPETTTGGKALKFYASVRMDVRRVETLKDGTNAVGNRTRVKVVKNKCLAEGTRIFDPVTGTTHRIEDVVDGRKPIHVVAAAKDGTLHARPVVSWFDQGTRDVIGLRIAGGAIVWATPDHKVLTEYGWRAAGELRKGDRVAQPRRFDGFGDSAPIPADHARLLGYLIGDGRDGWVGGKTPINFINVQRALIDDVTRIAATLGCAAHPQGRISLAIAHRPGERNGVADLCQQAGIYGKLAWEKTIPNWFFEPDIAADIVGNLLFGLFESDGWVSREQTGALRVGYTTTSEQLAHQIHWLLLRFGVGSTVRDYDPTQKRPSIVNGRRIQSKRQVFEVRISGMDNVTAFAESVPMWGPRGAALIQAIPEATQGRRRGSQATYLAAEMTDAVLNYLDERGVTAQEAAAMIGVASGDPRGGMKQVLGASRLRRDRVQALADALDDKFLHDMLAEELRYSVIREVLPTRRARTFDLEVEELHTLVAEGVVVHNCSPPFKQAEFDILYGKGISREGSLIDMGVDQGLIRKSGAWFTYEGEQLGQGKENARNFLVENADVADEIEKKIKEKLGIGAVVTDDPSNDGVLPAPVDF
Description: Fluorescence Cell-Free Homogeneous Dose Retest to Identify Inhibitors of RecA-Intein Splicing Activity. [Related pubchem assays (depositor defined):AID2097, AID2223, AID489010, AID492950]. The class given is functional.

For experiment [10], the target named is T5, Replicative DNA helicase DnaB (Mycobacterium tuberculosis, UniProt P9WMR3).
T5 sequence (P9WMR3 whole entry): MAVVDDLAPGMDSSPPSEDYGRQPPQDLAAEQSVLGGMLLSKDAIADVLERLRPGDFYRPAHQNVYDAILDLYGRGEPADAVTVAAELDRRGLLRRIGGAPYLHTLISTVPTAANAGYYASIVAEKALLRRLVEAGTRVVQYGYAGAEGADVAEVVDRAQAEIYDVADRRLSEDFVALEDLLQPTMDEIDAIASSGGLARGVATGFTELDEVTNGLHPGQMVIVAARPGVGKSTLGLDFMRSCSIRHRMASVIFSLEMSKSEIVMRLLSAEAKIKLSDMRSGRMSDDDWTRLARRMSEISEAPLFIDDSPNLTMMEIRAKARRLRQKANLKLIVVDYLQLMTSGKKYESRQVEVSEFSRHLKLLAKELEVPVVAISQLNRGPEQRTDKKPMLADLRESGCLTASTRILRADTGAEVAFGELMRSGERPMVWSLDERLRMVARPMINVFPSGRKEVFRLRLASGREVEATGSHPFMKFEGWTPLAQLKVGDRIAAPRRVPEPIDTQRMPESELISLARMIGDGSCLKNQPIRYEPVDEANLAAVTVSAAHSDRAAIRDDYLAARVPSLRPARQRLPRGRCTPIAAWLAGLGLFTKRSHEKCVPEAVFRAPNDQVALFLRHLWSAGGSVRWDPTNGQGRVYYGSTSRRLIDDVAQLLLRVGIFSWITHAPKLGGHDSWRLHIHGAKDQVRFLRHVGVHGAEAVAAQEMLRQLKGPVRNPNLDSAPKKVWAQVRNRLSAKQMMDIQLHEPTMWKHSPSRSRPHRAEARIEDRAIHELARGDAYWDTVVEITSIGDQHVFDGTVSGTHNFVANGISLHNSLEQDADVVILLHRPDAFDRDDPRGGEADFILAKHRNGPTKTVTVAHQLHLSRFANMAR
In words: DnaB intein splicing inhibitors, dose response, biochemical, cell-free fluorescence (AID 449749). It counts as functional.

For a further experiment, the system named is Vero. In words: cells. It counts as functional, cell-based. The note with it: Chlorocebus sabaeus.

Sequence of Alkaline phosphatase, placental type (P05187 whole entry): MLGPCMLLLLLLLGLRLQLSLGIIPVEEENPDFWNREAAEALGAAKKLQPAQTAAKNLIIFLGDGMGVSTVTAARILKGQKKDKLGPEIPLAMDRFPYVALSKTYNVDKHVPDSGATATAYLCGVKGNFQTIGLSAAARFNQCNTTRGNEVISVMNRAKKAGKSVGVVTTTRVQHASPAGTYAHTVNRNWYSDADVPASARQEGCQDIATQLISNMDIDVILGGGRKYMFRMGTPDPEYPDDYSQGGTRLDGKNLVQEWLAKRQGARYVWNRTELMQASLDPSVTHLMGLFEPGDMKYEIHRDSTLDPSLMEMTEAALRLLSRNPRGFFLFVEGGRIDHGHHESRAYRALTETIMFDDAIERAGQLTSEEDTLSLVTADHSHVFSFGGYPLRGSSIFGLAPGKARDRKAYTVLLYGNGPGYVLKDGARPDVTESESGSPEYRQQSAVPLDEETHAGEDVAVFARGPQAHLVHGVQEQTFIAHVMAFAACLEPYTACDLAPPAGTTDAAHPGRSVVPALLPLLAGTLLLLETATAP
T3 sequence (Q00975 whole entry): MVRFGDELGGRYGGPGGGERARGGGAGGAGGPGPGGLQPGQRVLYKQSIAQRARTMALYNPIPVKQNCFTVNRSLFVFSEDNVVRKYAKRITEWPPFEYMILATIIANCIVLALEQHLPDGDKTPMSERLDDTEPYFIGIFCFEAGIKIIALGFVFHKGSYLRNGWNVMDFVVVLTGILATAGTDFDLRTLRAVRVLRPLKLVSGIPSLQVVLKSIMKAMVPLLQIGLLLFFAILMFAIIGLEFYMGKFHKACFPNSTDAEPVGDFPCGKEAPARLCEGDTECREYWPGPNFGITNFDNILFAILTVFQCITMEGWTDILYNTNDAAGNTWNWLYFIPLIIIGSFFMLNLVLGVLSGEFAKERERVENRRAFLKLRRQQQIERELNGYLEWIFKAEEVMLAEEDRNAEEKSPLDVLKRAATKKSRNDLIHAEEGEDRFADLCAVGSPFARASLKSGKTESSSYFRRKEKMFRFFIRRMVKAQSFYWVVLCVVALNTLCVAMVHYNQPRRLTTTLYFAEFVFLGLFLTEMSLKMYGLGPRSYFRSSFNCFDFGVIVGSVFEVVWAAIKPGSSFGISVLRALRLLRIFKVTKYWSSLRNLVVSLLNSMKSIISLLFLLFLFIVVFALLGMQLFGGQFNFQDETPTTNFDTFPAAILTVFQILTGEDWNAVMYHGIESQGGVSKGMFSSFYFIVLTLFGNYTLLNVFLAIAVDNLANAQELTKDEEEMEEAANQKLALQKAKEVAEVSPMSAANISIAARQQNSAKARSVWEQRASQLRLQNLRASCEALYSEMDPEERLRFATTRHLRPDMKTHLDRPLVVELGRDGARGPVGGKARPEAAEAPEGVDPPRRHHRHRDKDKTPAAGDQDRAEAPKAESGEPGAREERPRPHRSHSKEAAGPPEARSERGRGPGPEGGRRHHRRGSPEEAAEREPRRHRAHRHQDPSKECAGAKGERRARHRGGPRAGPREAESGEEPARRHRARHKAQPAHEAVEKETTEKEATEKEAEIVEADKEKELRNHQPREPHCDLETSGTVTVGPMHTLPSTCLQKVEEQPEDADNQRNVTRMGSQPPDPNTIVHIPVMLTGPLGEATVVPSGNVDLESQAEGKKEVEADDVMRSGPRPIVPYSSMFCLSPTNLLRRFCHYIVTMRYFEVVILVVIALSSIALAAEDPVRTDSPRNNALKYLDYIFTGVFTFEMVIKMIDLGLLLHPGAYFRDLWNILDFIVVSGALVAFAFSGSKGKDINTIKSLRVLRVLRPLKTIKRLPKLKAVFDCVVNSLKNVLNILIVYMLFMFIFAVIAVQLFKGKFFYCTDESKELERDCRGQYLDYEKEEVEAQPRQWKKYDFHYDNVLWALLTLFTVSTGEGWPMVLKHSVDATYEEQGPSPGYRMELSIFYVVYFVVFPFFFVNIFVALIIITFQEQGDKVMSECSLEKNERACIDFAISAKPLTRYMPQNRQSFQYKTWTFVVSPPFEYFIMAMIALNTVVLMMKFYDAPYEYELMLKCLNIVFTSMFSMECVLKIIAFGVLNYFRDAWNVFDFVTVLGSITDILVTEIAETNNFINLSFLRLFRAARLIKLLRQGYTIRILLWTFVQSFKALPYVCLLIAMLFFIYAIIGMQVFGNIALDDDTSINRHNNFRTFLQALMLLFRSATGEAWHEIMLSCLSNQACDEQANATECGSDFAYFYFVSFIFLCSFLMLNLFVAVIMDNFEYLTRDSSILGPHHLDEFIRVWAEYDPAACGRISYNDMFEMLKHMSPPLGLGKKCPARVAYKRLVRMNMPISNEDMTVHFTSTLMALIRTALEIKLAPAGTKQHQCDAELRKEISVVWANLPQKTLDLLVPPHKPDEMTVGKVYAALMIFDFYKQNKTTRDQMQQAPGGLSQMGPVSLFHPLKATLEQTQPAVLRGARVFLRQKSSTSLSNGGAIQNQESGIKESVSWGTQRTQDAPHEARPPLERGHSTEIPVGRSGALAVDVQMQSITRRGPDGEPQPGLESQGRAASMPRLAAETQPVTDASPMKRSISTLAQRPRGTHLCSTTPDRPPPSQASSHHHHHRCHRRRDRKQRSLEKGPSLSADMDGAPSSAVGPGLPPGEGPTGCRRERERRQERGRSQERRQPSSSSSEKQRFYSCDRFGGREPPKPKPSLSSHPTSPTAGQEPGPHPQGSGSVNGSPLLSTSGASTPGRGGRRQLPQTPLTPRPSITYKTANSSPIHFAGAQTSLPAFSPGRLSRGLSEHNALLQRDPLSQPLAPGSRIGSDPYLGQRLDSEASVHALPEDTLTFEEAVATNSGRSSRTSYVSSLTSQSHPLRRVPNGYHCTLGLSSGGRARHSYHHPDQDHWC
T3 sequence (Q02410 whole entry): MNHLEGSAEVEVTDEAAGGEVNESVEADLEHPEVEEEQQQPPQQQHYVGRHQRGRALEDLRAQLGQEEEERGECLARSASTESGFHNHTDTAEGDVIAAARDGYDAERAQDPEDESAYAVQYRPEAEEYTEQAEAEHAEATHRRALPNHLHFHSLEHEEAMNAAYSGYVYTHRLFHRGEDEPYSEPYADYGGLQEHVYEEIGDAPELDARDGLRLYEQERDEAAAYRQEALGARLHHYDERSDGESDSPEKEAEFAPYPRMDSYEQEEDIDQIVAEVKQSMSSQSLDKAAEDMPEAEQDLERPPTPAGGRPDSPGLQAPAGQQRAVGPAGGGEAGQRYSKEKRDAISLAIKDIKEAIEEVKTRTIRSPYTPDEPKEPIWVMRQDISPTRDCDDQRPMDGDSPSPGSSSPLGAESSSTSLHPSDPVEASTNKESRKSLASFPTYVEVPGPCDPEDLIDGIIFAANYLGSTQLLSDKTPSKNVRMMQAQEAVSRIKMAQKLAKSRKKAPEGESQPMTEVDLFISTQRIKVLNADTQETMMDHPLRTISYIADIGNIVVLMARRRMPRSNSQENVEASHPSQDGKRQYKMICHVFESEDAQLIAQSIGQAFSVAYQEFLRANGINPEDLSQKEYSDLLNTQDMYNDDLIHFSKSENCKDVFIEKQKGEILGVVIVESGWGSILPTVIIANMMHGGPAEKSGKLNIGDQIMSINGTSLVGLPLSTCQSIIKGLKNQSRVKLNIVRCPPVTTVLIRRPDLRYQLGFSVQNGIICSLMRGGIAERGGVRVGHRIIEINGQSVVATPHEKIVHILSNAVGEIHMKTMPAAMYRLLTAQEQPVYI
Sequence of Glyceraldehyde-3-phosphate dehydrogenase (P04406 whole entry): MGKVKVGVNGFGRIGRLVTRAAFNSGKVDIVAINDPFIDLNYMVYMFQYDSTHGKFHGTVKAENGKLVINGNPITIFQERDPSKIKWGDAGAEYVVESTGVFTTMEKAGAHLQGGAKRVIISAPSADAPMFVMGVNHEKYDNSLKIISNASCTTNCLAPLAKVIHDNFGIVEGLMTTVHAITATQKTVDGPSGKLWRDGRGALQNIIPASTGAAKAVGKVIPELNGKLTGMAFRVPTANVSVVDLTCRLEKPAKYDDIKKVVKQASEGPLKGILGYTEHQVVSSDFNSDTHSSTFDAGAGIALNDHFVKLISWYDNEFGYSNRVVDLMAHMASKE

Take `CC1(C)CC(=O)c2c(-c3ccc(Cl)cc3)n[nH]c2C1`: the half-inhibitory concentration (IC50) in [1] was 5.02 µM (active); in experiment [2], > 100 µM (inactive); in experiment [3], > 100 µM (not active).
For the molecule `Cc1ccccc1C(=O)Nc1c(C(=O)N(CCN(C)C)Cc2ccco2)oc2ccccc12`, the figures for the EC50 in experiment [4] and in experiment [5] were 0.473 µM (active) and 4.22 µM (active), respectively.
Turning to `COc1ccc(-c2n[nH]c3c2C(=O)CC(C)(C)C3)cc1`, the IC50 was 3.57 µM (active) in experiment [1], > 100 µM (inactive) in experiment [2] and > 100 µM (not active) in experiment [3].
As to `COc1ccccc1/C=C/CN1CCCC(CCC(=O)NCc2ccc(F)c(F)c2)C1` (configuration not stated), the half-maximal effective concentration (EC50) in experiment [6] is < 0.1 µM (active); in experiment [7], > 60 µM (not active); in the experiment “cells”, 0.043 µM (active); in [5], 0.168 µM (active).
For the molecule `O=C(O)Cc1sc(Nc2ccc(Cl)cc2)nc1-c1cccs1`, the half-maximal inhibitory concentration (IC50) in experiment [8] is 16 µM (active); in [9], > 50 µM (inactive).
As to `Cc1[nH]n(C)c(=O)c1C(=O)c1c(-c2c(Cl)cccc2Cl)noc1C`, the figures for the EC50 (in experiment [4]; on Protein RecA) were 4.22 µM (active) and 1.71 µM (active), respectively. Besides, in experiment [10], the AC50 is 5.13 µM (active).
`Nc1nnc(-c2ccc(Cl)cc2)[nH]1`: the figures for the IC50 in experiment [1], in experiment [2] and in experiment [3] were 24.5 µM (active), > 100 µM (inactive) and > 100 µM (not active), respectively.
For `Cn1ncc2c1ncn1c(-c3ccc(Cl)cc3Cl)nnc21` the same measures were > 100 µM (inactive), > 100 µM (inactive) and > 100 µM (not active).
Consider `CN1CSC2=C(C#N)C(c3cccc(OCc4ccccc4)c3)CC(=O)N2C1` (configuration not stated), for which the results for the IC50 in experiment [8] and in experiment [9] were 7.59 µM (active) and 47.6 µM (active), respectively.
For `O=C(Cc1cccc2ccccc12)Nc1ccc(Br)cc1C(=O)O`, the concentration for half-maximal inhibition (IC50) with Vero was > 25 µM (active). The EC50 in [4] was 5.96 µM (active).
